Key:
[1] = test system: Ixodes scapularis tick OctR (IsTOctR); assay: OctR activation, change in intracellular calcium; assay type: cell-based; conditions: 100 μM; normalized to octopamine at a supersaturating concentration; FIG. 1C
Source text: (§1) Functional expression of cloned arthropod OctRs and human α2-ARs: The cDNAs for α-like OctRs from different arthropod species (e.g., Anopheles gambiae, Aedes aegypti, Periplaneta americana, Drosophila melanogaster, Ixodes scapularis, Balanus improvises) and for α2-AR subtypes from humans were individually subcloned into mammalian expression vectors. These plasmids, which harbor a resistance gene for the selection drug G418 and the cDNA sequence for the receptor of interest, were individually transfected into mammalian cells using a calcium phosphate precipitation method. G418 selection was then employed to generated stable clonal cell lines. Utilizing rapid filtration radioligand binding techniques, the cell surface density of receptor expression of the individual clonal cell lines was determined at equilibrium and those with similar high levels of expression were selected for further experiments. Briefly, binding conditions were 50 mM Tris binding buffer pH 7.4 at 25° C. and an ice-cold wash buffer 10 mM Tris-HCl, pH 7.4). The radioligand was [3H]rauwolscine and non-specific binding was determined in the presence of 10 μM atipamezole. Following the addition of membranes prepared from the clonal cell lines, samples were mixed and allowed 2 hr. to reach equilibrium before rapid filtration and washing through 0.3% PEI-treated GF/C filters. The radioactivity remaining on the filters was quantified by scintillation counting. Receptor density (Bmax) was back calculated knowing the specific activity of the radioligand and applying the equation for a square hyperbola model: Bmax=(Y·(KD+X))/X, where Y is [specifically bound radioligand] and X=[radio ligand concentration]. The affinity (KD) for the radioligand for each receptor was determined in separate saturation isotherm binding experiments using the same binding conditions as describe above.
(§2) Measurement of OctR activation by measuring changes in intracellular calcium: Activation of arthropod α-like OctRs increases intracellular calcium via a Gq-coupling mechanism. This involves activation of phospholipase C leading to an increase in intracellular inositol triphosphate (IP3) which then activates IP3-gated calcium channels in the endoplasmic reticulum causing a transient rise in intracellular calcium. These changes in intracellular calcium upon OctR activation were measured by loading cells with intracellular calcium sensitive dye CALCIUM 6QR and reading the change in calcium-induced fluorescent signal over time on a FlexStation 3 microplate reader.

[2] = target: T1, Drosophila melanogaster α-like OctR (DmOctR) (Drosophila melanogaster, UniProt Q7JQF1); assay: OctR activation, change in intracellular calcium; assay type: cell-based; conditions: 100 μM; normalized to octopamine at a supersaturating concentration; FIG. 1A
T1 construct: expressed in transfected cells
T1 sequence (Q7JQF1 1-645): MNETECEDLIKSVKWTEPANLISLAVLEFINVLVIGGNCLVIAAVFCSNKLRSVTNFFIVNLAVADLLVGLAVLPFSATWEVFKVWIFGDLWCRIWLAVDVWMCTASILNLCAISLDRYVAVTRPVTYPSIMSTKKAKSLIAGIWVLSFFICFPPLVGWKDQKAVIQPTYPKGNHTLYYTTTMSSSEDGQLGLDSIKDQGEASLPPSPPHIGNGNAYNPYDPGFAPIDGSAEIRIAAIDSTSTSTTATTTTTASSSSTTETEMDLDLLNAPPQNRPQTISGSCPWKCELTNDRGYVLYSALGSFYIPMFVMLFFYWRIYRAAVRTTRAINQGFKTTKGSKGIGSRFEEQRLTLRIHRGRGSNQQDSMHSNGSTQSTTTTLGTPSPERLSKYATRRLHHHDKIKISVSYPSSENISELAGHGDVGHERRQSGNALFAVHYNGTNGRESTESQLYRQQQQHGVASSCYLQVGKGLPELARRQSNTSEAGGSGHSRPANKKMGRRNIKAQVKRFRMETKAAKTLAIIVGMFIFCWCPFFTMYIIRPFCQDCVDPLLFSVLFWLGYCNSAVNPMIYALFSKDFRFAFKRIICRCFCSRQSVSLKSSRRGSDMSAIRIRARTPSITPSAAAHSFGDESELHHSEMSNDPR
Source text: as §1, §2

[3] = test system: Periplaneta americana OctR (PaOctR); assay: OctR activation, change in intracellular calcium; assay type: cell-based; conditions: 100 μM; normalized to octopamine at a supersaturating concentration; FIG. 1D
Source text: as §1, §2

[4] = test system: Aedes aegypti α-like OctR (AeOctR); assay: OctR activation, change in intracellular calcium; assay type: cell-based; conditions: 100 μM; normalized to octopamine at a supersaturating concentration; FIG. 1B
Source text: as §1, §2

[5] = test system: Balanus OctR (BiOctR); assay: OctR activation, change in intracellular calcium; assay type: cell-based, Balanus improvises; conditions: 100 μM; compared with octopamine
Source text: as §1, with “Briefly, binding conditions were 50 mM Tris binding buffer pH 7.4 at 25° C. and an ice-cold wash buffer 10 mM Tris-HCl, pH 7.4).” left out, “Following the addition of membranes prepared from the clonal cell lines, samples were mixed and allowed 2 hr. to reach equilibrium before rapid filtration and washing through 0.3% PEI-treated GF/C filters.” left out, “The affinity (KD) for the radioligand for each receptor was determined in separate saturation isotherm binding experiments using the same binding conditions as describe above.” left out

[6] = test system: IsTOctR (Ixodes octopamine receptor), cloned α-like OctR; assay: OctR activation: change in intracellular calcium (CALCIUM 6QR dye, FlexStation 3) in stably transfected mammalian cells; assay type: cell-based, Ixodes scapularis; conditions: agonist, read-out: IsTOctR (Ixodes octopamine receptor) EC50
Source text: as §1, §2

[7] = target: T2, AgAOctR (Anopheles octopamine receptor isoform A), cloned α-like OctR (Anopheles gambiae, UniProt Q7PRZ8); assay: as above; assay type: cell-based; conditions: agonist
T2 construct: Gq calcium readout
T2 sequence (Q7PRZ8 1-592): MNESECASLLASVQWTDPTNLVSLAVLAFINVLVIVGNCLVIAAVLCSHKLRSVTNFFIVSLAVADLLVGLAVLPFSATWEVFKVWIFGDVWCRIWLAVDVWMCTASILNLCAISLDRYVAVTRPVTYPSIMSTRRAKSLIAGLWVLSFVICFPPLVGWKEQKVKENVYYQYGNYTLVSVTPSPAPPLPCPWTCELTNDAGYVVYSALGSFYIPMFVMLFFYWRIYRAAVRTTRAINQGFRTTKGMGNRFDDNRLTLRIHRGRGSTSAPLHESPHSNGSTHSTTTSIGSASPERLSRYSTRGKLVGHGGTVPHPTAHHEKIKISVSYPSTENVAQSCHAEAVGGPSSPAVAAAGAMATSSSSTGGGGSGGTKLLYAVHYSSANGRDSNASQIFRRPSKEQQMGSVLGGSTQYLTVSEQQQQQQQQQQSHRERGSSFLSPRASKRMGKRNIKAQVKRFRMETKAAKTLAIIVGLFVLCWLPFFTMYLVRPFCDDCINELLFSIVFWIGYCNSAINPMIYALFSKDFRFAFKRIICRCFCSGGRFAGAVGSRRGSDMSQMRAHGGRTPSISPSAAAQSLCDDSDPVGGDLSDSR
Source text: as §1, §2

[8] = target: T3, Hsα2C-AR (human α2C adrenergic receptor) (Homo sapiens, UniProt P18825); assay: [3H]rauwolscine competition radioligand binding, membranes of clonal mammalian cell lines; conditions: 50 mM Tris pH 7.4, 25° C., 2 hr, Cheng-Prusoff
T3 construct: expressed in transfected cells
T3 sequence (P18825 1-462): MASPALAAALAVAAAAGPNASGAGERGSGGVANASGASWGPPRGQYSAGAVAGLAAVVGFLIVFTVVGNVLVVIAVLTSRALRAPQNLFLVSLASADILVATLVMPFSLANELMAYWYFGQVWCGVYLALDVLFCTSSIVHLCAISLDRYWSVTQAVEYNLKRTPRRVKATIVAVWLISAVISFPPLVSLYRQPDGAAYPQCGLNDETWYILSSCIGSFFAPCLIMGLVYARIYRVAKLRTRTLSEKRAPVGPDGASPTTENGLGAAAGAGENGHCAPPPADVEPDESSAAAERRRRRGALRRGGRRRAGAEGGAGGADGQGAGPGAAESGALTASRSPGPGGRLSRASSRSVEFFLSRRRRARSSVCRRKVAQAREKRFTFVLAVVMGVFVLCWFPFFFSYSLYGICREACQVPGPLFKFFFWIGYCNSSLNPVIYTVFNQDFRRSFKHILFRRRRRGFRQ
Source text: as §1
(§3) Measurement of compound affinities by competition radioligand binding: Affinities (Ki) for compounds were determined by [3H]rauwolscine competition binding using the same binding conditions as described above. The Ki values were calculated from IC50 values using the Cheng-Prusoff equation.

[9] = target: T4, Hsα2A-AR (human α2A adrenergic receptor) (Homo sapiens, UniProt P08913); assay: as above; conditions: 50 mM Tris pH 7.4, 25° C., 2 hr, Cheng-Prusoff
T4 construct: expressed in transfected cells; membranes
Source text: as §1, §3

[10] = test system: Anopheles gambiae mosquito isoform A OctR (AgAOctR); assay: OctR activation, change in intracellular calcium; assay type: cell-based; conditions: AgAOctR over Homo sapien α2-AR subtypes
Source text: as §1, §2

[11] = target: T5, PaOctR (Periplaneta octopamine receptor), cloned α-like OctR (Periplaneta americana, UniProt Q7YWB7); assay: OctR activation: change in intracellular calcium (CALCIUM 6QR dye, FlexStation 3) in stably transfected mammalian cells; assay type: cell-based; conditions: agonist
T5 construct: Gq calcium readout
T5 sequence (Q7YWB7 1-628): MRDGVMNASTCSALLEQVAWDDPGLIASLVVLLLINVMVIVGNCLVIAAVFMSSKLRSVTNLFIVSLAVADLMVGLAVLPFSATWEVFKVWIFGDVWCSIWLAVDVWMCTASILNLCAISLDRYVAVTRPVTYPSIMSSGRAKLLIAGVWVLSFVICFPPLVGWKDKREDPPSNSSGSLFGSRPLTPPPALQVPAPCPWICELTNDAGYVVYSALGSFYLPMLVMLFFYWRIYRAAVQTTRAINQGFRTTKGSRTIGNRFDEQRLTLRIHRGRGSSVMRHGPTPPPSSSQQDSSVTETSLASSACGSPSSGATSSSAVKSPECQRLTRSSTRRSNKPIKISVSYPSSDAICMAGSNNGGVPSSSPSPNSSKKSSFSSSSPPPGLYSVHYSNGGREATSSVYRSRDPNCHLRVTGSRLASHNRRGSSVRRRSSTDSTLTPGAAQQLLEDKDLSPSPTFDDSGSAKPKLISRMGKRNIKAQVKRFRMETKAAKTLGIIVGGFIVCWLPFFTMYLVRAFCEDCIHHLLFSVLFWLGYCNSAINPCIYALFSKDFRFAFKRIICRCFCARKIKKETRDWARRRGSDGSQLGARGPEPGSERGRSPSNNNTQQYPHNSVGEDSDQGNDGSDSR
Source text: as §1, §2

[12] = target: T6, DmOctR (Drosophila octopamine receptor), cloned α-like OctR (Drosophila melanogaster, UniProt Q7JQF1); assay: as above; assay type: cell-based; conditions: agonist
T6 construct: Gq calcium readout
T6 sequence (Q7JQF1 1-645): T1 sequence (Q7JQF1 1-645)
Source text: as §1, §2

[13] = test system: Aedes mosquito; assay: Protection against mosquito biting and toxicity to mosquitoes; assay type: in vivo; conditions: DEET: at the lowest concentration that produces maximal protection against biting (LC50)

T4 sequence (P08913 whole entry): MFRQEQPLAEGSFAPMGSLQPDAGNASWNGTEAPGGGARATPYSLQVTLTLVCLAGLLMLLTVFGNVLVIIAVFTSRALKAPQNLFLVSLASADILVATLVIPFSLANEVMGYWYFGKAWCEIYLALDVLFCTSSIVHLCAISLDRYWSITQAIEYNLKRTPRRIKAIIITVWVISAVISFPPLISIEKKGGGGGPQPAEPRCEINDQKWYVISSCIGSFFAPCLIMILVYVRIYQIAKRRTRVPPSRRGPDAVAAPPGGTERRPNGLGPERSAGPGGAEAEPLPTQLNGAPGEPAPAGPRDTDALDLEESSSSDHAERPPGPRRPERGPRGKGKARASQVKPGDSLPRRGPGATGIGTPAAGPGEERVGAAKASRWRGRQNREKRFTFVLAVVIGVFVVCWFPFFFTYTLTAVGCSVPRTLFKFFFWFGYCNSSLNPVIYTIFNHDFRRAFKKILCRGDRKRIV

CCC(C)OC(=O)N1CCCCC1CCO (centres unmarked) [picaridin, 1-(1-methylpropoxycarbonyl)-2-(2-hydroxyethyl)piperidine]
agonist response (change in intracellular calcium) relative to octopamine [1]: did not produce a significant agonist response
agonist response (change in intracellular calcium) relative to octopamine [2]: did not produce a significant agonist response
agonist response (change in intracellular calcium) relative to octopamine [3]: did not produce a significant agonist response
agonist response (change in intracellular calcium) relative to octopamine [4]: did not produce a significant agonist response
agonist response (change in intracellular calcium) relative to octopamine [5]: significant agonist responses

C/C=C(\c1cnc[nH]1)c1cccc(C)c1C [AZ1409 Z-isomer]
EC50 [6]: 969 ± 358 nM
EC50 [7]: 58 ± 41 nM

Cc1c(C(O)c2cnc[nH]2)cccc1C(F)(F)F (centres unmarked) [AZ1399]
Ki [8]: 2110 ± 385 nM
Ki [9]: 3210 ± 672 nM
EC50 [6]: 43 ± 11 nM
selectivity Ki(Hsα2-AR)/EC50(OctR) [10]: highly selective
EC50 [11]: 82 ± 25 nM
EC50 [12]: 367 ± 237 nM
EC50 [7]: 11 ± 3.7 nM

CC1CCC(C(C)(C)O)C(O)C1 (centres unmarked) [PMD, para-menthane-3,8-diol]
agonist response (change in intracellular calcium) relative to octopamine [2]: < 25%
agonist response (change in intracellular calcium) relative to octopamine [4]: < 25%

CCN(CC)C(=O)c1cccc(C)c1 [DEET, N,N-diethyl-meta-toluamide]
toxicity to mosquitoes [13]: lethal in half the mosquitoes
agonist response (change in intracellular calcium) relative to octopamine [1]: did not produce a significant agonist response
agonist response (change in intracellular calcium) relative to octopamine [2]: did not produce a significant agonist response
agonist response (change in intracellular calcium) relative to octopamine [3]: did not produce a significant agonist response
agonist response (change in intracellular calcium) relative to octopamine [4]: did not produce a significant agonist response

Cc1cccc(C(O)c2cnc[nH]2)c1 (centres unmarked) [AZ1410]
Ki [8]: 9440 ± 6470 nM
Ki [9]: 4200 ± 1760 nM
EC50 [6]: 185 ± 92 nM
selectivity Ki(Hsα2-AR)/EC50(OctR) [10]: highly selective
EC50 [7]: 38 ± 16 nM

Source: patent publication US10766866B2, “Deterrents for arthropods and marine organisms” (priority 2017, dated 2020)
